Read-outs that look alike come from different tables or passages of the source. Values belong to the compound of their own block, whether it stands above or below them.
How the values were obtained:
[1] = cited from earlier work
[2] = Pharmacokinetic analyses in NOD/SCID mice; format: in vivo
ccRCC tumorgraft lines = test: Drug trials in subcutaneous ccRCC tumorgraft lines; format: in vivo, NOD/SCID mice; conditions: 4 ccRCC tumorgraft lines; dovitinib 30 mg/kg by gavage
[3] = system: TG144 tumorgraft-bearing mice; test: Serum calcium; format: in vivo, NOD/SCID mice; conditions: TG144, end of trial
[4] = system: papillary RCC tumorgraft line (TG121); test: Drug trial in papillary RCC tumorgraft line TG121; format: in vivo, NOD/SCID mice; conditions: dovitinib 30 mg/kg by gavage
[5] = system: NSCLC cell line-derived xenograft; test: NSCLC; format: in vivo, mice; conditions: same erlotinib regimen (12.5 mg/kg by gavage every 12 h)
ccRCC = conditions: patients with ccRCC, randomized phase II trial; cited from earlier work

SMILES: CO[C@H]1C[C@@H]2CC[C@@H](C)[C@@](O)(O2)C(=O)C(=O)N2CCCC[C@H]2C(=O)O[C@H]([C@H](C)C[C@@H]2CC[C@@H](OCCO)[C@H](OC)C2)CC(=O)[C@H](C)/C=C(\C)[C@@H](O)[C@@H](OC)C(=O)[C@H](C)C[C@H](C)/C=C/C=C/C=C/1C [Everolimus]
Cmin ([1]; human, 10 mg PO qd, analyte Everolimus, mean ± SD, ref Awada et al., 2008): 13.2 ± 7.2 ng/mL

SMILES: C#Cc1cccc(Nc2ncnc3cc(OCCOC)c(OCCOC)cc23)c1 [erlotinib]
effect on NSCLC cell line-derived xenograft growth [5]: profound effect
peak and overall exposures compared with humans ([2]; erlotinib 12.5 mg/kg by gavage every 12 h, mice): higher
outcomes in combination with bevacizumab vs bevacizumab alone (ccRCC): failed to show improved outcomes
half-life ([1]; humans): 24 h

SMILES: CO[C@H]1C[C@@H]2CC[C@@H](C)[C@@](O)(O2)C(=O)C(=O)N2CCCC[C@H]2C(=O)O[C@H]([C@H](C)C[C@@H]2CC[C@@H](O)[C@H](OC)C2)CC(=O)[C@H](C)/C=C(\C)[C@@H](O)[C@@H](OC)C(=O)[C@H](C)C[C@H](C)/C=C/C=C/C=C/1C [sirolimus]
peak and overall exposures, fold higher than in humans ([2]; sirolimus 0.5 mg/kg intraperitoneally every 48 h, NOD/SCID mice vs humans): 2-3 fold
share of circulating drug after temsirolimus administration ([1]; humans, after temsirolimus administration): 75%
therapeutic range (trough levels) in humans ([1]; humans): 5 to 15 ng/mL

Now from value to compound, other results behind:

metabolite as share of total circulating drug ([2]; NOD/SCID mice, day 1, after sunitinib): 38%
SMILES: CCNCCNC(=O)c1c(C)[nH]c(/C=C2\C(=O)Nc3ccc(F)cc32)c1C [desethyl sunitinib]
metabolite as share of total circulating drug ([1]; humans, day 1, after sunitinib, ref Table 6): 13%

peak and overall exposures compared with humans ([2]; dovitinib 30 mg/kg daily by gavage, mice): within the range reported in humans
SMILES: CN1CCN(c2ccc3nc(-c4c(N)c5c(F)cccc5[nH]c4=O)[nH]c3c2)CC1 [dovitinib]
effect on ccRCC tumorgraft growth (ccRCC tumorgraft lines): profoundly suppressed
Terminal t1/2 ([1]; human, 500 mg PO qd, PK data at (D15), analyte Dovitinib, ref Kim, et al 2011): 21 h
effect on paraneoplastic hypercalcemia (serum calcium) [3]: inhibited the development of paraneoplastic hypercalcemia
activity in papillary RCC tumorgraft line [4]: very active

peak exposures compared with humans ([2]; sunitinib 10 mg/kg by gavage every 12 h, mice): slightly higher than in humans
half-life compared with humans ([2]; sunitinib, mice vs humans): much shorter in mice
SMILES: CCN(CC)CCNC(=O)c1c(C)[nH]c(/C=C2\C(=O)Nc3ccc(F)cc32)c1C [sunitinib]

Source: article PMC3570965 (Science translational medicine, 2012)
